1 compound from US20140243332A1, “METHODS OF TREATING CANCERS CHARACTERIZED BY ABERRENT ROS1 ACTIVITY” (Oregon Health & Science University, priority 2013, published 2014) can be followed below.

Holding throughout (format): cell-based
One test has as its target T1, Ba/F3 FIG-ROS cells (Homo sapiens, UniProt P08922).
T1 construct: fused on or other part: GFP is co-expressed from an IRES in pMIG and is not fused; Q9HD26 (Golgi-associated PDZ and coiled-coil motif-containing protein)
The test can be described thus: Cell viability (MTS) assay, Ba/F3 FIG-ROS. The following applies: read-out: IC50 (50% growth inhibitory concentration); Ba/F3 FIG-ROS cells, 72 hours, MTS. From the text:
Ba/F3 cell lines were maintained at densities of 0.5×10^6 to 1.5×10^6 per ml of media. FIG-ROS and SLC-ROS Ba/F3 lines were created by infecting the parental Ba/F3 with retrovirus expressing either human FIG-ROS-S (indicated FIG-ROS herein) or SLC-ROS-S (indicated SLC-ROS herein). Stable transfectant lines were sorted for GFP expression on a FACS Aria® flow cytometer. Cells were counted daily using Guava ViaCount® reagent and Guava Personal Cell Analysis® flow cytometer. […] Early passage NIH3T3 cells were infected with retrovirus expressing either FIG-ROS or SLC-ROS and sorted for GFP expression as described above for Ba/F3 cells. […] This media is referred to as RPMI-10% FBS herein.
The FIG-ROS-S (FIG-ROS) fusion protein has been reported in non-small cell lung cancers (NSCLC), glioblastomas, and cholangiocarcinomas.

A further test has as its target T2, Ba/F3 SLC-ROS cells (Homo sapiens, UniProt P08922).
T2 construct: SLC-ROS-S (SLC-ROS) was cloned from cDNA made from HCC78 cells; fused on or other part: GFP is co-expressed from an IRES in pMIG and is not fused; O95436 (Sodium-dependent phosphate transport protein 2B)
The test can be described thus: Cell viability (MTS) assay, Ba/F3 SLC-ROS. Particulars: 72 hours, read-out: IC50 (the source's name). The procedure: (§1) The parental Ba/F3 cell line was cultured in RPMI 1640 medium with 10% FBS, L-glutamine, penicillin/streptomycin and 15% WEHI-conditioned media. Ba/F3 cell lines were maintained at densities of 0.5×10^6 to 1.5×10^6 per ml of media. FIG-ROS and SLC-ROS Ba/F3 lines were created by infecting the parental Ba/F3 with retrovirus expressing either human FIG-ROS-S (indicated FIG-ROS herein) or SLC-ROS-S (indicated SLC-ROS herein). Stable transfectant lines were sorted for GFP expression on a FACS Aria® flow cytometer. Cells were counted daily using Guava ViaCount® reagent and Guava Personal Cell Analysis® flow cytometer. […] Early passage NIH3T3 cells were infected with retrovirus expressing either FIG-ROS or SLC-ROS and sorted for GFP expression as described above for Ba/F3 cells. HCC78 cells were cultured in RPMI 1640 medium with 10% FBS, L-glutamine, and penicillin/streptomycin. This media is referred to as RPMI-10% FBS herein.
(§2) […]. The Ba/F3 parental line was also tested. (O'Dwyer M E and Druker B J, Lancet Oncology 1, 207-211 (2000); Walters D K et al, Cancer Cell 10, 65-75 (2006); and Heukamp L C et al, Science Translational Medicine 4, 141ra191 (2012); […].

A further test concerns the target Ba/F3 ALK F1174L cells (Homo sapiens, UniProt Q9UM73, F1174L, cells depend on it). The test can be described thus: Cell viability (MTS) assay, Ba/F3 ALK F1174L. The following applies: 72 hours, read-out: IC50 (the source's name).
In the next test the target is Ba/F3 Bcr-Abl cells (Homo sapiens, UniProt P00519). The test is described as follows: Cell viability (MTS) assay, Ba/F3 Bcr-Abl. Particulars: read-out: IC50 (insensitive/resistant up to stated concentration).
A further test addresses Ba/F3 JAK3 A572V cells (Homo sapiens, UniProt P52333, A572V, cells depend on it). The test is described as follows: Cell viability (MTS) assay, Ba/F3 JAK3 A572V. Particulars: read-out: IC50 (insensitive/resistant up to stated concentration).
For another test, the system named is Ba/F3 parental cells. The test is described as follows: Cell viability (MTS) assay, Ba/F3 parental. The following applies: Ba/F3 parental cells; read-out: IC50 (insensitive/resistant up to stated concentration). The protocol: as §1, §2

SMILES strings stand for the structures.

Take `CNC(=O)c1c(F)cccc1Nc1nc(Nc2cc3c(cc2OC)CCN3C(=O)CN(C)C)nc2[nH]ccc12` [GSK1838705A]: the GI50 is 0.25 µM on Ba/F3 FIG-ROS cells; 1 µM on Ba/F3 SLC-ROS cells; 0.01 µM on Ba/F3 ALK F1174L cells; > 10 µM at Ba/F3 Bcr-Abl cells; > 10 µM at Ba/F3 JAK3 A572V cells. Moreover, the IC50 in the test on Ba/F3 parental cells was > 10 µM.
